Measurements: patent US20130034522A1, “THERAPIES FOR TREATING HEPATITIS C VIRUS INFECTION” (priority 2010, published 2013)

Tests used:
genotype 1 HCV = assay: Study VX-222-102 Part A: plasma HCV RNA reduction; format: in vivo, Hepatitis C virus
Experimental: In Part A of Study 102 subjects were randomized to VX-222 or placebo in a 6:2 (VX-222: placebo) allocation ratio to either Cohort 1, Cohort 2, Cohort 3, or Cohort 4. Subjects enrolled in Cohort 1, Cohort 2, and Cohort 3 were administered 250 mg, 500 mf, or 750 mg VX-222 or placebo twice daily (b.i.d.) for 3 days, respectively. Subjects enrolled in Cohort 4 were administered 1,500 mg VX-222 or placebo once daily (qd) for 3 days. Standard of care treatment, Peg-IFN-alpha-2a and RBV was offered to the subjects at the end of dosing in Part A for up to 48 weeks, if judged appropriate by the physician.
Additional results of Study VX-222-102 are described in FIGS. 2-8: Thirty-two treatment-naïve patients with chronic genotype 1 HCV infection were enrolled in the trial, including six patients in each dose group who received 250 mg of VX-222 BID, 500 mg of VX-222 BID, 750 mg of VX-222 BID, and 1,500 mg of VX-222 QD. Two patients received placebo in each of the four dosing groups, for a total of eight patients who received placebo. Part A of the trial was conducted at 10 centers in the United States, Canada and Argentina. Of the patients enrolled in the trial, 24 patients had genotype 1a HCV infection and eight patients had genotype 1b HCV infection. Six of the patients enrolled in the trial were African American, 25 were Caucasian and one was American Indian/Alaskan.
Multicenter, randomized, double-blinded, placebo-controlled, dose-ranging study • HCV genotype 1-infected patients • With no evidence of cirrhosis • ALT values <5×ULM • Plasma HCV RNA of >5 log10 IU/mL at screening • 4-arm comparative study (6:2 randomization VX-222: placebo) • Enrollment in this dosing—ranging study was sequential • 250 mg BID for 3 days • 500 mg BID for 3 days • 750 mg BID for 3 days • 1500 mg QD for 3 days.

[1] = PK parameters of VX-222 in Study 101 Part C and Study 102 Part A; format: in vivo, human
Experimental: In Part C of Study 101, VX-222 was administered as multiple doses of 750 mg b.i.d. to treatment-naïve subjects with chronic hepatitis C for 3 days. In addition, in Part A of Study 102, VX-222 was administered as multiple doses ranging from 250 mg to 750 mg BID and 1500 mg once a day to treatment-naïve subjects with chronic hepatitis C for 3 days.

[2] = multiple doses, treatment-naïve chronic hepatitis C subjects

CC1CCC(C(=O)N(c2cc(C#CC(C)(C)C)sc2C(=O)O)C2CCC(O)CC2)CC1 (stereo not drawn) [VX-222, 5-(3,3-Dimethylbut-1-ynyl)-3-[(trans-4-hydroxycyclohexyl)-(4-trans methylcyclohexanecarbonyl)amino]thiophene-2-carboxylic acid]
mean HCV RNA decline after three days of dosing (genotype 1 HCV; 250 mg BID): 3.1 log10
Mean Viral Load Reduction at Day 4 (genotype 1 HCV; 250 mg b.i.d. for 3 days): −3.1
mean HCV RNA decline after three days of dosing (genotype 1 HCV; 500 mg BID): 3.4 log10
Mean Viral Load Reduction at Day 4 (genotype 1 HCV; 500 mg b.i.d. for 3 days): −3.4
mean HCV RNA decline after three days of dosing (genotype 1 HCV; 750 mg BID): 3.2 log10
Mean Viral Load Reduction at Day 4 (genotype 1 HCV; 750 mg b.i.d. for 3 days): −3.2
mean HCV RNA decline after three days of dosing (genotype 1 HCV; 1,500 mg QD): 3.4 log10
Mean Viral Load Reduction at Day 4 (genotype 1 HCV; 1,500 mg QD for 3 days): −3.4
mean log HCV RNA decrease on Day 4 (genotype 1 HCV; Cohort 1, 250 mg b.i.d.): 3.1 log
mean log HCV RNA decrease on Day 4 (genotype 1 HCV; Cohort 2, 500 mg b.i.d.): 3.4 log
mean log HCV RNA decrease on Day 4 (genotype 1 HCV; Cohort 3, 750 mg b.i.d.): 3.2 log
mean log HCV RNA decrease on Day 4 (genotype 1 HCV; Cohort 4, 1,500 mg once a day): 3.6 log
mean reductions in plasma HCV RNA (genotype 1 HCV; across the four VX-222 dose groups): greater than 3 log10
VX-222 exposures versus dose ([1]; 250 to 750 mg b.i.d.): increased in an approximately dose proportional manner
mean t1/2 across doses ([1]; all doses): remained unchanged across all doses
VX-222 concentrations at the end of the dosing intervals ([1]; all subjects): > 319 ng/mL
accumulation index ([1]; b.i.d. regimens): around 2 fold
half-life ([1]; human, in vivo): ~5 h
Tmax ([1]; human, in vivo, read-out: median tmax at steady state): 2 to 6 h
exposures in treatment-naïve HCV subjects compared to healthy subjects ([1]; in vivo): around 2 fold
accumulation index for AUC [1, 2]: 1.90 fold
accumulation index for Cmax [1, 2]: 1.75 fold
time to steady state ([1]; repeated measure analyses): ≤ 3 days
